Here are results for eight molecules from US8410085B2, “Phospholipid compositions and uses thereof” (Baylor College of Medicine, priority 2007, dated 2013).

The target in data set [1] is T1, LRH-1 (Homo sapiens, UniProt O00482). Kind of data set: human LRH-1 transactivation, HeLa cotransfection with LRH-1/SF-1 response element luciferase reporter. More on the design: expressed in transfected cells; host or cells: HeLa (A1, A3). The settings on record: HeLa cells, 100 μM. Format: cell-based. As to the method: Controls (vector only and no lipid) are as indicated. […] Cells were treated with 100 μM of the indicated PCs and luciferase expression (RLU, relative light units) was normalized using an internal β-galactosidase control. vec, empty vector; −, ethanol solvent control.
T1 sequence (O00482 whole entry): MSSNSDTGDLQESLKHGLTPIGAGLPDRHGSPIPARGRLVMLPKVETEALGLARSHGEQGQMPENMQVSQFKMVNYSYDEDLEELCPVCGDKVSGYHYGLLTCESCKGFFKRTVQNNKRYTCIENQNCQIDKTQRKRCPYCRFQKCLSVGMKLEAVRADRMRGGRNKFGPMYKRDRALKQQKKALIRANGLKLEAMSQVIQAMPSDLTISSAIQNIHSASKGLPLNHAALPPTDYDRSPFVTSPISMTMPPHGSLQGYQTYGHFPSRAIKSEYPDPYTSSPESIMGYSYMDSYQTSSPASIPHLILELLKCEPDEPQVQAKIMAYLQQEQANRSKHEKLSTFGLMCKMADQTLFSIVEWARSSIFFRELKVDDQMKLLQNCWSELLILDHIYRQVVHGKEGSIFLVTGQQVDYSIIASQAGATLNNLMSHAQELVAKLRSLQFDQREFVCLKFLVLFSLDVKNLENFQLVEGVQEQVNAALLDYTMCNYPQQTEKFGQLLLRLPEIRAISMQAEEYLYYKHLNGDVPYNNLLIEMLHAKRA
HeLa cells were transfected with an hLRH-1 expression vector along with mSHP1080-Luc reporter. […] Oct4-PPmut Luc is identical to Oct4-PP Luc except for the insertion of point mutations in the DR0 element. […] HeLa cells were cotransfected with various nuclear receptors and the reporter plasmid (RE-tk-luc). […] Data are expressed for each reporter as fold activation of normalized luciferase activity relative to veh-treated cells.
A number of different phosphatidylcholine (PC) species were screened for effects on human LRH-1 transactivation in HeLa cell cotransfections with a synthetic luciferase reporter containing multiple copies of an LRH-1/SF-1 response element.

Data set [2] concerns the target T2, SF-1 (Homo sapiens, UniProt Q13285). Kind of data set: SF-1 transactivation, reporter cotransfection in HeLa cells.
For data set [3], the target named is T2, SF-1. On the set-up: expressed in transfected cells; host or cells: HeLa. Particulars: in vitro, Li et al. Mol Cell Biol 2007; read-out: affinity of SF-1; cited from earlier work.
Data set [4] addresses T1, LRH-1. Kind of data set: Oct4 proximal promoter (Oct4-PP Luc) activation by hLRH-1 in COS-1 cells. Particulars: COS-1 cells, Oct4-PP Luc.
The subject of data set [5] is LRH-1. Kind of data set: hepatic gene expression in LRH-1 f/f mice infected with Ad-Cre. Format: in vivo, mouse. The settings on record: 100 mg/kg oral. The text has this: (§1) Total liver RNA was isolated and prepared for the cDNA. […] Total liver RNA was isolated and prepared for cDNA.
For data set [6], the system named is hepatic expression of Cyp7A1, Cyp8B1, mSR-BI, SHP. Nature of the data set: hepatic gene expression (Q-PCR) in wild type mice after oral gavage. Particulars: 100 mg/kg oral, five times over three days. Format: in vivo, mouse.
Excerpt: as §1

For the next data set, the system named is wild type male mice. Kind of data set: bile acids, serum glucose and NEFA in wild type mice after oral gavage. It is filed as in vivo, mouse. The settings on record: 100 mg/kg oral.
The target of data set [7] is hLRH-1 LBD / SRC-3 receptor interaction domain (Homo sapiens, UniProt O00482). Kind of data set: mammalian two-hybrid assay, VP16-hLRH1 LBD with Gal4-SRC3 RID in HeLa cells.
Chain of hLRH-1 LBD / SRC-3 receptor interaction domain (O00482 300-539 limits assumed): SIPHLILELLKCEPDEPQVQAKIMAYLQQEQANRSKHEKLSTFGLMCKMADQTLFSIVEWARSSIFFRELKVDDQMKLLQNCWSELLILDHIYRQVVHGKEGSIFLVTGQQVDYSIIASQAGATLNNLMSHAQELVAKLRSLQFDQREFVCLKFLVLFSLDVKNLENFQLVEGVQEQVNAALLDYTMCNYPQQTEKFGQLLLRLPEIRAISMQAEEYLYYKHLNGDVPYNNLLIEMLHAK
Chain of hLRH-1 LBD / SRC-3 receptor interaction domain (Q9Y6Q9 whole entry partner, the tested form may be a part): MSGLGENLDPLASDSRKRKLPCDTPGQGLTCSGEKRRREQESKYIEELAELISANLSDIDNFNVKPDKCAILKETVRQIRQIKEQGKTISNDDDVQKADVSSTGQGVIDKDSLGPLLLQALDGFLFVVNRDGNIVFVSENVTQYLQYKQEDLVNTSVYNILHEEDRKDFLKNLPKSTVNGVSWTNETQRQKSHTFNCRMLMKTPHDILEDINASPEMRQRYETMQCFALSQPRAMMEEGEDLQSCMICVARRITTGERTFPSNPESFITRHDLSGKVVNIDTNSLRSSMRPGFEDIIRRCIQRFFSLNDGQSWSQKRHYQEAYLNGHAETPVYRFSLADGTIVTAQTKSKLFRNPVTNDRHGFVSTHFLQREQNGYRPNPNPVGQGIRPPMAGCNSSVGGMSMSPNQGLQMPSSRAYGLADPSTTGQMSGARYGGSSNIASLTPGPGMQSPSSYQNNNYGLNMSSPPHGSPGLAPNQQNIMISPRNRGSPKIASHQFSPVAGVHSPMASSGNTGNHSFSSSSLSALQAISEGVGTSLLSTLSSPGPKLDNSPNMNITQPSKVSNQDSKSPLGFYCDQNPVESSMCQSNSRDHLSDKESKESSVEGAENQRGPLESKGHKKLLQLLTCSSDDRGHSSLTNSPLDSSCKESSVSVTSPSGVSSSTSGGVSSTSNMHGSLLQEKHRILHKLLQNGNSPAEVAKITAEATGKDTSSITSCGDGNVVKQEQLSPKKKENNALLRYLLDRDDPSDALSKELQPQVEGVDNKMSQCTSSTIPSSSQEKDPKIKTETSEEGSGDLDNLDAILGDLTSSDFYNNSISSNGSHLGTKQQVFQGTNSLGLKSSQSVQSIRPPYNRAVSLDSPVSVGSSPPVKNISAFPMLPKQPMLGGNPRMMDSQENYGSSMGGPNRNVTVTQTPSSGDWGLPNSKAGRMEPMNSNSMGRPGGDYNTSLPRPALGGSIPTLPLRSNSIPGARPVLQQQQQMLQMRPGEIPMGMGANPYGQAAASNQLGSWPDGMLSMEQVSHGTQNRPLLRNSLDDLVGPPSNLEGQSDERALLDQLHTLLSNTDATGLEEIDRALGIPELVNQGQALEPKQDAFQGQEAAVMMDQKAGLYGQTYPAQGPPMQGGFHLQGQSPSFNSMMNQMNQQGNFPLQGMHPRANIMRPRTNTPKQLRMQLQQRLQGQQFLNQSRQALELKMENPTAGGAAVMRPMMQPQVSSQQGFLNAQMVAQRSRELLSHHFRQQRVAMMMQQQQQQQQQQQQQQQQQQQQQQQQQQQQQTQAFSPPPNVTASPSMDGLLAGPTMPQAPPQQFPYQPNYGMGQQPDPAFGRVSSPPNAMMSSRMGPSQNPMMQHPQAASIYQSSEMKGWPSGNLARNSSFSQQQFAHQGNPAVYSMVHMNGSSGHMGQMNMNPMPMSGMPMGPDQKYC
Data set [8] deals with T1, LRH-1. Nature of the data set: LRH-1 Luc reporter in C3A HepG2 cells (endogenous hLRH-1). Particulars: C3A/HepG2 cells or cells with non-target control siRNAs.
The target in the next data set is PPARδ (Homo sapiens, UniProt Q03181). Kind of data set: nuclear receptor cotransfection (RE-tk-luc), HeLa cells. Particulars: 100 μM.
Chain of PPARδ (Q03181 whole entry, species assumed): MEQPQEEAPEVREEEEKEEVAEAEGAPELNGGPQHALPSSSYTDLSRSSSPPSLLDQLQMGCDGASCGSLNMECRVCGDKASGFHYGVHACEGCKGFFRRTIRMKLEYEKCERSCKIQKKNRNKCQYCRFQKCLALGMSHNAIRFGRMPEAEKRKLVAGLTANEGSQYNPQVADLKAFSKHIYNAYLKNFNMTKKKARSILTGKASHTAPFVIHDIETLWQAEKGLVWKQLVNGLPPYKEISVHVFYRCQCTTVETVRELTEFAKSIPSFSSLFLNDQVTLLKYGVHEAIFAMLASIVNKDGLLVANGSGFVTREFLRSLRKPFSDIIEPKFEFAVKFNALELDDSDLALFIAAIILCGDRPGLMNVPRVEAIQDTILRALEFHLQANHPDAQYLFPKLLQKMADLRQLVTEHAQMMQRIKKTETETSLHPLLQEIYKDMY
For the next data set, the target named is mouse CAR (Mus musculus, UniProt O35627). The description is as above. Particulars: 100 μM.
Chain of mouse CAR (O35627 whole entry): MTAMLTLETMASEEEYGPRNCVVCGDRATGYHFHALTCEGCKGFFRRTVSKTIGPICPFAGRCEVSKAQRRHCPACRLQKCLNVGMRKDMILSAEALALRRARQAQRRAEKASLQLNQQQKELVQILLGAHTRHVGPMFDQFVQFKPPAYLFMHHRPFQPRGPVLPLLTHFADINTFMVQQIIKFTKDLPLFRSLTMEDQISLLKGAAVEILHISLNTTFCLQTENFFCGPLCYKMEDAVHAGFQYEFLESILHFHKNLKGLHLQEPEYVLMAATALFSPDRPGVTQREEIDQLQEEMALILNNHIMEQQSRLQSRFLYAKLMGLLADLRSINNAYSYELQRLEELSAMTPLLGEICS
In a further data set the target is human PXR (Homo sapiens, UniProt O75469). The description is as above. The settings on record: 100 μM.
Another data set concerns the target LXRα (Homo sapiens, UniProt Q13133). The description is as above. The settings on record: 100 μM.
In another data set the target is FXR (Homo sapiens, UniProt Q96RI1). The data set is described as above. The settings on record: 100 μM.
Chain of FXR (Q96RI1 whole entry, species assumed): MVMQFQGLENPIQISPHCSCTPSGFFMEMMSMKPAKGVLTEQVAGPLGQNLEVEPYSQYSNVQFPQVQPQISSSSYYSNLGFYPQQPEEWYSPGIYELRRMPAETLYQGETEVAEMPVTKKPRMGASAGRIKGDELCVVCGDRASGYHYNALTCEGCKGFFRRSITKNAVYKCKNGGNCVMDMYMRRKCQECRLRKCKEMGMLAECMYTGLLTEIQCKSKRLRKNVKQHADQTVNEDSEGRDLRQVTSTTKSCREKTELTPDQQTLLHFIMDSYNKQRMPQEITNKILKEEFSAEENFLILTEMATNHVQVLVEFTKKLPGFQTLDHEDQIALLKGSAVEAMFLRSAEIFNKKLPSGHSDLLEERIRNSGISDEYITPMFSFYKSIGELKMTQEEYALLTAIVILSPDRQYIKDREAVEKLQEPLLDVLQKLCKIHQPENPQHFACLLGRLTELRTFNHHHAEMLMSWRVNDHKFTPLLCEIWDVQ
Another data set has as its target RXRα (Homo sapiens, UniProt P19793). The data set is described as above. The settings on record: 100 μM.
The test system of data set [9] is db/db mice. Nature of the data set: body and organ weights, serum and hepatic parameters in db/db mice.
The next data set addresses ERα (Homo sapiens, UniProt P03372). Nature of the data set: nuclear receptor cotransfection (RE-tk-luc), HeLa cells. Particulars: 100 μM.
Another data set concerns the target PPARα (Homo sapiens, UniProt Q07869). The description is as above. Particulars: 100 μM.
A further data set deals with TRβ (Homo sapiens, UniProt P10828). The data set is described as above. Particulars: 100 μM.
The test system of the next data set is hepatic gene expression. Kind of data set: hepatic mRNA levels in db/db mice.
For another data set, the target named is human CAR (Homo sapiens, UniProt Q14994). Kind of data set: nuclear receptor cotransfection (RE-tk-luc), HeLa cells. The settings on record: 100 μM.
In data set [10] the test system is db/db mice. Nature of the data set: glucose tolerance and insulin tolerance tests in db/db mice. It is filed as in vivo, mouse. The settings on record: for glucose tolerance test (GTT): oral gavage 2 weeks. As to the method:
Glucose tolerance (GTT: 1.5 g/kg i.p.) was assessed in fasted mice. One week later, insulin tolerance (ITT: 2 U/kg i.p) was assessed in fed mice. In the ITT, glucose levels after insulin injection are presented as the percentage of initial glucose concentrations.
After 1 week of additional treatment, the same mice were given an insulin tolerance test (ITT) and sacrificed.

A further data set deals with RARβ (Homo sapiens, UniProt P10826). Nature of the data set: nuclear receptor cotransfection (RE-tk-luc), HeLa cells. Particulars: 100 μM.
Chain of RARβ (P10826 whole entry, species assumed): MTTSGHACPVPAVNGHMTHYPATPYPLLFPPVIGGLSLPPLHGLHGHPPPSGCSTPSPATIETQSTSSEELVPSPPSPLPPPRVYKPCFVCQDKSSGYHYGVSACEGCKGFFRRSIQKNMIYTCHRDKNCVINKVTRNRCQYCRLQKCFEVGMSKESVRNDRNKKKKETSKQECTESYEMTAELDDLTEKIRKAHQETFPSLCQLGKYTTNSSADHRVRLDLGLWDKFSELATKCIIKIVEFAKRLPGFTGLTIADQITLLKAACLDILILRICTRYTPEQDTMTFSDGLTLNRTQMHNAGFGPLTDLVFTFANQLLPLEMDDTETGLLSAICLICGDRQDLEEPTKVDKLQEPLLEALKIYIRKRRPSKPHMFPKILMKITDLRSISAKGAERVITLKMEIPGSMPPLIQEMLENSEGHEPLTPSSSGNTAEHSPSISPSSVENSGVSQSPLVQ
The next data set addresses PPARγ (Homo sapiens, UniProt P37231). The data set is described as above. The settings on record: 100 μM.
The subject of another data set is LRH-1 target Cyp8B1. Nature of the data set: hCYP8B1 expression by Q-PCR in C3A HepG2 cells. Particulars: for expression of Cyp8B1: C3A/HepG2 cells or cells with non-target control siRNAs.

T2 sequence (Q13285 whole entry): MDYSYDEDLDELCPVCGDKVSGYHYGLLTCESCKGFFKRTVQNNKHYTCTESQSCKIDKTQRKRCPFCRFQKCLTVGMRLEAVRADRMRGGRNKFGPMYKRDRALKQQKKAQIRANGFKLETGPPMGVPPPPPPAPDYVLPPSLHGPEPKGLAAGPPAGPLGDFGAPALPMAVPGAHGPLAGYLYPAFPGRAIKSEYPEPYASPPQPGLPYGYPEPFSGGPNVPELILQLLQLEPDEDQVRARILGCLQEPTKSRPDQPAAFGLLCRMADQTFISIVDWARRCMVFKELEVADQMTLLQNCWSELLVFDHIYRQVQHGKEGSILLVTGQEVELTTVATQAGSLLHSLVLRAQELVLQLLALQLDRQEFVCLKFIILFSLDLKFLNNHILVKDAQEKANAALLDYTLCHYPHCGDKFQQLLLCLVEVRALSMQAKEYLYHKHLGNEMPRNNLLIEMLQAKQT
Chain of RXRα (P19793 whole entry): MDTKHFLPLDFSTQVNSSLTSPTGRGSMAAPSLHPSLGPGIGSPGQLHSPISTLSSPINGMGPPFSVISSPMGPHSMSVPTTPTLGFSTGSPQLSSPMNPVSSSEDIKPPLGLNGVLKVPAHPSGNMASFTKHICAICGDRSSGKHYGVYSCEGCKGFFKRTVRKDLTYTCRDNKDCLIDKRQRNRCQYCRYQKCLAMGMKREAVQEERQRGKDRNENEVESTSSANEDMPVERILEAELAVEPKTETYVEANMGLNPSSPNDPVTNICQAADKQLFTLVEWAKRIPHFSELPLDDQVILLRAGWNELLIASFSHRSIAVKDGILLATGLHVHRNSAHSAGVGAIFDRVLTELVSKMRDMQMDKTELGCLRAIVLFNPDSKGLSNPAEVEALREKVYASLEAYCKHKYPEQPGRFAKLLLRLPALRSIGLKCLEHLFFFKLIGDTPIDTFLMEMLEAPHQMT

`CCCCCCCCCC(=O)OC[C@H](COP(=O)(O)OCCN)OC(=O)CCCCCCCCC` [C10:0-10:0 PE]: the “LRH-1 transactivation (luciferase)” value on LRH-1 [1] was “no activation”.
For the molecule `CCCCCCCCCCCC(=O)OC[C@H](COP(=O)(O)OCCN)OC(=O)CCCCCCCCCCC` [C12:0-12:0 PE], the “LRH-1 transactivation (luciferase)” value on LRH-1 [1] is “no activation”.
Take `CCCCCCCCCCCCCC(=O)OC[C@H](COP(=O)(O)O)OC(=O)CCCCCCCCCCCCC` [C14:0-C14:0 PA]: the “increase of SF-1 transactivation” value on SF-1 [2] was 1.2-1.4 fold. Moreover, the “LRH-1 transactivation (luciferase)” value at LRH-1 [1] is recorded as “no effect”. Further, at SF-1 [3], the Kd was approximately 100 nM.
Consider `CCCCCCCCCCCCCC(=O)OC[C@H](COP(=O)(O)OCCN)OC(=O)CCCCCCCCCCCCC` [C14:0-C14:0 PE], for which the “LRH-1 transactivation (luciferase)” value at LRH-1 [1] was “no activation”.
Turning to `C[C@H](CCC(=O)O)[C@H]1CC[C@H]2[C@@H]3[C@H](O)C[C@@H]4C[C@H](O)CC[C@]4(C)[C@H]3C[C@H](O)[C@]12C` [CA, cholic acid, reference compound], on LRH-1 [4], the “response with the Oct4 promoter” value is “not”. Besides, the “hepatic gene expression response when LRH-1 gene removed by Cre” value in the data set on LRH-1 [5] was “lost”. Further, in data set [6], the “hepatic expression of Cyp7A1” value is listed as “reduced”, the “hepatic expression of Cyp8B1” value is reported as “reduced”, the “hepatic expression of SHP” value is listed as “induced” and the “hepatic expression of mSR-BI” value is listed as “induced”. In addition, in the data set on wild type male mice, the liver bile acids entry is on record as “did not show statistically significant changes”, the “serum bile acid levels” value is “substantially elevated”, the “serum free fatty acids” value is given as “decreased levels” and the serum glucose levels result was “not”.
`C[C@H](CCC(=O)O)[C@H]1CC[C@H]2[C@@H]3[C@H](O)C[C@@H]4C[C@H](O)CC[C@]4(C)[C@H]3CC[C@]12C` [CDCA, chenodeoxycholic acid]: the “interaction of hLRH-1 LBD with SRC-3 RID” value in data set [7] is reported as “unaffected”. The “LRH-1 Luc luciferase activity” value at LRH-1 [8] was “not”.
In the case of `CCCCCCCCCCCC(=O)OCC(COP(=O)([O-])OCC[N+](C)(C)C)OC(=O)CCCCCCCCCCC` (stereo not drawn) [DLPC, dilauroylphosphatidylcholine], the “activation or inhibition of PPARδ” value at PPARδ is “did not activate or inhibit”. Further, the “activation or inhibition of mouse CAR” value at mouse CAR is recorded as “did not activate or inhibit”. Moreover, at human PXR, the “activation or inhibition of human PXR” value is given as “did not activate or inhibit”. Moreover, the “activation or inhibition of LXRα” value at LXRα is “did not activate or inhibit”. The “activation or inhibition of FXR” value on FXR is listed as “did not activate or inhibit”. The “activation or inhibition of RXRα” value on RXRα is reported as “did not activate or inhibit”. Besides, at SF-1 [2] (100 μM), the SF-1 activation result is “activate SF-1”. Further, in the data set with db/db mice [9], the “hepatic NEFA” value was “more modestly lowered”, the hepatic cholesterol entry is recorded as “increased”, the “hepatic triglycerides (TG)” value is on record as “significantly decreased” and the “serum bile acid levels” value is “significantly increased”. In the data set on db/db mice [9], the serum cholesterol result is “modestly decreased”, the “serum free fatty acids (NEFA)” value is listed as “modestly decreased”, the total body weight entry is listed as “not altered” and the weight of liver result is “not altered”. Moreover, in the data set with db/db mice [9], the “weight of reproductive fat pads” value was “not altered”. For the same molecule, the “activation or inhibition of ERα” value on ERα is on record as “did not activate or inhibit”. Besides, in data set [6], the “hepatic expression of Cyp7A1” value is recorded as “significantly induced”, the “hepatic expression of Cyp8B1” value is listed as “significantly induced”, the “hepatic expression of SHP” value is listed as “repressed” and the “hepatic expression of mSR-BI” value is given as “significantly induced”. For the same molecule, at PPARα, the “activation or inhibition of PPARα” value is recorded as “did not activate or inhibit”. Also, at TRβ, the “activation or inhibition of TRβ” value was “did not activate or inhibit”. In the data set with hepatic gene expression (mouse, in vivo), the SHP expression entry is “appeared to be decreased”, the “expression of ACC2” value is listed as “significantly decreased”, the “expression of FAS” value is “significantly decreased” and the “expression of SCD-1” value was “significantly decreased”. Also, in the data set with hepatic gene expression (mouse, in vivo), the “expression of SREBP-1c” value is reported as “significantly decreased”; the “hepatic expression of Cyp7A1” value is on record as “increased expression”; the “hepatic expression of Cyp8B1” value is given as “increased expression”; the “hepatic expression of genes associated with glucose homeostasis (ACC1, glucokinase, hexokinase 1 and 2, PEPCK, glucose-6-phosphatase, pyruvate carboxylase, PGC-1α)” value is recorded as “no effect”. The “activation or inhibition of human CAR” value on human CAR was “did not activate or inhibit”. Moreover, the “glucose tolerance test (GTT)” value in the data set with db/db mice [10] is reported as “remarkable improvement”. Besides, in the data set with db/db mice [10] (oral gavage 3 weeks), the “insulin tolerance test (ITT)” value was “remarkable improvement”. On RARβ, the “activation or inhibition of RARβ” value is “did not activate or inhibit”. The “activation or inhibition of PPARγ” value at PPARγ is listed as “did not activate or inhibit”. Besides, in the data set on wild type male mice, the liver bile acids result is given as “somewhat lower”, the “serum bile acid levels” value was “substantially elevated”, the “serum free fatty acids” value was “decreased levels” and the serum glucose levels entry is reported as “decreased serum glucose levels”. The “total bile acid pool” value in the data set on wild type male mice was “significant increase”. For the same molecule, the “expression of Cyp8B1” value in the data set with LRH-1 target Cyp8B1 is recorded as “modestly but significantly induced”. Besides, in the data set with LRH-1 target Cyp8B1 (siRNA hLRH-1), the “Cyp8B1 response when LRH-1 expression is knocked down” value was “lost”.
As for `CCCCCCCCCCCCCCCC(=O)OC[C@H](COP(=O)([O-])OCC[N+](C)(C)C)OC(=O)CCCCCCCCCCCCCCC` [DPPC, dipalmitoyl PC, reference compound], the “response with the Oct4 promoter” value on LRH-1 [4] is “not”. In the data set on db/db mice [9], the “serum bile acid levels” value is recorded as “not”, the total body weight entry is on record as “not altered”, the weight of liver entry is listed as “not altered” and the “weight of reproductive fat pads” value is listed as “not altered”. Further, in data set [6], the “hepatic expression of Cyp7A1” value was “without significant effect”, the “hepatic expression of Cyp8B1” value is listed as “without significant effect”, the “hepatic expression of SHP” value is “without significant effect” and the “hepatic expression of mSR-BI” value is listed as “without significant effect”. In the data set on hepatic gene expression (db/db mice), the SR-B1 expression result is “not significantly affected”; the “hepatic expression of Cyp7A1” value was “not”; the “hepatic expression of genes associated with glucose homeostasis (ACC1, glucokinase, hexokinase 1 and 2, PEPCK, glucose-6-phosphatase, pyruvate carboxylase, PGC-1α)” value is given as “no effect”. For the same molecule, the SHP expression entry with hepatic gene expression (db/db mice, not statistically significant) is “appeared to be decreased”. In addition, the “glucose tolerance test (GTT)” value in the data set on db/db mice [10] was “lesser beneficial response”. In addition, the “interaction of hLRH-1 LBD with SRC-3 RID” value in data set [7] is “unaffected”. Also, the “LRH-1 Luc luciferase activity” value on LRH-1 [8] is listed as “not”. The “expression of Cyp8B1” value in the data set with LRH-1 target Cyp8B1 is reported as “not”.
